Experimental data taken from patent US20260297060A1, “COMPOUNDS FOR THE DEGRADATION OF MUTANT BRAF” (C4 THERAPEUTICS, INC., priority 2023, published 2026).
Like-named read-outs stand apart in the source and are kept apart here.

Key:
[1] = tested on: luciferase-tagged A375 human melanoma CNS tumor; assay: Survival of mice in CNS tumor study (BRAF intracranial model) (Example 12); format: in vivo, human A375 CNS xenograft in mice; settings: versus encorafenib
Experimental: FIG. 48 is the survival curve for the mice after administration of vehicle, encorafenib, Compound 26, Compound 141 in CNS tumor study. The x-axis is time measured in days and the y-axis is probability of survival. The experiment was conducted as described in Example 12.
FIG. 85 is an extended survival curve for the BRAF intracranial model experiment after administration of vehicle, encorafenib, Compound 26, and Compound 141 in the CNS tumor study. The x-axis is time measured in days and the y-axis is probability of survival. The experiment was conducted as described in Example 12.

[2] = tested on: A375 human melanoma xenografts; assay: Example 8 efficacy study in A375 human melanoma xenografts (tumor volume, T/C, TGI); format: in vivo, BALB/c nude mice; settings: 10 mg/kg, p.o., BID × 21 days
Experimental: (§1) For efficacy study, agents were tested in the A375 human melanoma xenografts model. Compound 8, Compound 26, and Compound 38 were administered to BALB/c nude mice bearing A375 xenografts from day 0 and dosed p.o. twice per day (BID). Compound 8 and Compound 26 were dosed at 10 mg/kg for 21 days. Compound 38 was dosed at 10 mg/kg for 10 days. The known BRAF inhibitor encorafenib was used as a positive control. encorafenib was administered from day 1 and dosed p.o. daily (QD) for 21 days and dosed at 35 mg/kg.
The A375 tumor cells were maintained in vitro in DMEM medium supplemented with […] and 1% Penicillin-Streptomycin at 37° C. in an atmosphere of 5% CO2 in air. The tumor cells were routinely subcultured twice weekly. The cells growing in an exponential growth phase were harvested and counted for tumor inoculation.
Each mouse was inoculated subcutaneously at the right flank with A375 cells (5×10^6) in 0.2 mL of PBS supplemented with Matrigel (PBS:Matrigel=1:1) for tumor development. Animals were grouped for treatment 16 days after tumor inoculation when the average tumor volume reached 234 mm^3 for efficacy study and 382 mm^3 for PKPD study. The test articles administration and the animal numbers in each group are shown in the above experimental tables.
Prior to the onset of drug treatment, mice were measured for tumor size in two dimensions using a caliper, and the tumor volume (mm^3) was calculated using formula V=0.5 a×b^2 where a and b are the long and short diameters of the tumor in mm, respectively. Mice were randomized into different treatment groups based on the tumor volume.
The major endpoint was to see if the tumor growth could be delayed or mice could be cured. The tumor size was then used for calculations of T/C value. The T/C value (in percent) is an indication of antitumor effectiveness; T and C are the mean volumes of the treated and control groups, respectively on specified day.
TGI was calculated for each group using the formula: TGI (%)=[1−(Ti−T0)/(Ci−C0)]×100; Ti is the average tumor volume of a treatment group on a given day, T0 is the average tumor volume of the treatment group on the day of treatment start, Ci is the average tumor volume of the vehicle control group on the same day with Ti, and C0 is the average tumor volume of the vehicle group on the day of treatment start.

[3] = Example 8 pharmacokinetics assay for efficacy study (plasma, liver); format: in vivo, BALB/c nude mice; settings: mouse, po, 10 mg/kg, p.o., BID × 21 days
Experimental: as §1
The plasma samples were collected at predetermined time points for PK analysis. For non-termination plasma collection, blood samples were collected into the 1.5 mL Eppendorf tubes containing 3 μL of 0.5 M EDTA-K2. For termination plasma collection, the mice were euthanized at predetermined time points post the treatment and the blood samples were collected into the 1.5 mL Eppendorf tubes containing 15 μL of 0.5 M EDTA-K2. And then the anticoagulant blood samples were centrifuged at 2,500 g at 4° C. for 15 minutes. The plasma samples were separated into 2 aliquots. The 1st was used for PK analysis, and the 2nd served as backup. The samples were stored at −80° C. before bioanalysis.
Liver samples were collected at predetermined time points for PK analysis. The left lobe of the liver was dissected out and split into 2 parts. The 1st part was used for PK analysis and the 2nd part served as the backup for the study. The samples were transferred into pre-labeled tubes and quickly froze in liquid nitrogen within 2 minutes after dissection. The samples were stored at −80° C. before bioanalysis.
The harvested plasma and liver samples were processed for pharmacokinetics analysis by LC-MS/MS with a concentration range of 2.0~2000 ng/mL for encorafenib in plasma and liver homogenate, 10.0-10,000 ng/mL for Compound 8 and Compound 38 in plasma and liver homogenate, 20.0~20,000 ng/mL for Compound 26 in plasma and liver homogenate.

In the case of `CCN(C)S(=O)(=O)Nc1ccc(F)c(Oc2ccc3ncn([C@H]4COC5(CCN(C6CC7(C6)CN(c6cc8c(cc6F)c(N6CCC(=O)NC6=O)nn8C)C7)CC5)C4)c(=O)c3c2)c1C#N` [Compound 26, (3R)-3-[6-[2-cyano-3-[[ethyl(methyl)sulfamoyl]amino]-6-fluoro-phenoxy]-4-oxo-quinazolin-3-yl]-8-[2-[3-(2,4-dioxohexahydropyrimidin-1-yl)-5-fluoro-1-methyl-indazol-6-yl]-2-azaspiro[3.3]heptan-6-yl]-1-oxa-8-azaspiro[4.5]decane], the “survival of CNS tumor-bearing mice compared with encorafenib” value [1] is reported as “lived significantly longer”, the T/C ([2]; PG-D21) is reported as 0.97% and the TGI ([2]; PG-D21) is reported as 114.89%. The “Tumor Size on PG-D21 (Mean ± SEM)” value ([2]; PG-D21) was 16 ± 2 mm^3, the “Tumor Volume (mean ± SEM)” value ([2]; day 0) was 234 ± 7 mm^3 and the “Tumor Volume (mean ± SEM)” value ([2]; day 3) was 148 ± 10 mm^3. The “Tumor Volume (mean ± SEM)” value ([2]; day 6) was 57 ± 4 mm^3, the “Tumor Volume (mean ± SEM)” value ([2]; day 9) was 33 ± 3 mm^3 and the “Tumor Volume (mean ± SEM)” value ([2]; day 13) was 21 ± 2 mm^3. For the same molecule, the “Tumor Volume (mean ± SEM)” value ([2]; day 17) was 18 ± 1 mm^3, the “Tumor Volume (mean ± SEM)” value ([2]; day 21) was 16 ± 2 mm^3 and the concentration at 6 h ([3]; liver, read-out: Concentration in Liver (mean ± SEM)) was 4720 ± 367 ng/g. The concentration at 6 h ([3]; plasma, read-out: Concentration in Plasma (mean ± SEM)) was 16000 ± 2060 ng/mL.
